From patent US7618958B2, “Stereospecific anxiolytic and anticonvulsant agents with reduced muscle-relaxant, sedative-hypnotic and ataxic effects” (WISYS Technology Foundation, Inc., priority 2004, dated 2009)

How the values were obtained:
α2β3γ2 GABAA receptors = target: T1, α2β3γ2 GABAA receptors (Rattus norvegicus, UniProt P18508+P23576); assay: Two-electrode voltage clamp in Xenopus oocytes, α2β3γ2; format: cell-based; conditions: FIG. 1, Xenopus oocytes
T1 construct: expressed in transfected cells; host or cells: Xenopus laevis oocytes injected with cRNA
Procedure: (§1) 1. Effects of SH-053-S—CH3 8 on GABA(A) receptors were tested by two-electrode voltage clamp experiments in cRNA injected Xenopus oocytes that functionally expressed several subtype combinations of GABAA receptors. […] This oocyte profile is indicative of an anxiolytic agent devoid of sedative, ataxic and anterograde amnestic side effects.
(§2) The methods were based on those published previously. See Li, X., et al., (2003) J. Med. Chem. 46: 5567-5570.
(§3) Cloning of GABAA receptor subunits α1, β3 and γ2 into pCDM8 expression vectors (Invitrogen, CA) has been described elsewhere ([…]). GABAA receptor subunit α4 was cloned in an analogous way. cDNAs for subunits α2, α3 and α5 were gifts from P. Malherbe and were subcloned into pCI-vector (Li, et al., 2003). cDNA for subunit α6 was a gift from P. Seeburg and was subcloned into the vector pGEM-3Z (Promega). After linearizing the cDNA vectors with appropriate restriction endonucleases, capped transcripts were produced using the mMessage mMachine T7 transcription kit (Ambion, Tex.). The capped transcripts were polyadenylated using yeast poly(A) polymerase (USB, OH) and were diluted and stored in diethylpyrocarbonate-treated water at −70° C. (Li, et al., 2003). […]

α1β3γ2 GABAA receptors = target: T2, α1β3γ2 GABAA receptors (Rattus norvegicus, UniProt P18508+P62813); assay: Two-electrode voltage clamp in Xenopus oocytes, α1β3γ2; format: cell-based; conditions: FIG. 1, Xenopus oocytes
T2 construct: expressed in transfected cells; host or cells: Xenopus laevis oocytes injected with cRNA
Procedure: as §1, §2, §3

Male BALB/c mice [1] = assay: Locomotor activity in mice; format: in vivo, mouse; conditions: ip
Procedure: (§4) Male BALB/c mice approximately 8 to 10 weeks old (18-25 grams) served as subjects in the locomotor activity and light/dark assays. Animals were housed in groups of four on a 14 hour light/10 hour dark cycle and were given free access to food and water. All experiments were conducted during the animals' light cycle (0800-1700).
(§5) Behavioral testing was conducted in an illuminated open field chamber (11.0″×11.0″; Med Associates MED-OFA-510) equipped with infrared beams and sensors which was placed in a sound attenuating cubicle. Horizontal locomotor activity was measured by recording the total number of beams crossed in a 60 minute period. Anxiolytic-like behavior was assessed using the same chambers with the addition of a Plexiglas insert that is opaque to visible light creating separate darkened and illuminated sides (5.5″×11.0″) of the chamber. An opening in the middle of the dark insert allowed the animals to move freely between each side of the chamber. Animals were place in the center of the illuminated side of the chamber and allowed to freely explore for 10 minutes. The amount of time (sec) that the animals spent in each side of the chamber was recorded. Data were analyzed using one-way analysis of variance and Bonferroni t-tests.
Vehicle and doses of SH-053-S—CH3 8 (10.0-100.0 mg/kg) and SH-053-R-CH3 29 (56.0 mg/kg) were tested in the light/dark and locomotor activity assays. All drugs were administered intraperitoneally (ip) 30 minutes before each test in volumes of approximately 1 ml/kg. Drugs were dissolved in varying amounts of 95% ethanol (5-10%), propylene glycol and sterile water and diluted to the desired concentration with a solution of 50% propylene glycol and 50% sterile water.

α3β3γ2 GABAA receptors = target: T3, α3β3γ2 GABAA receptors (Rattus norvegicus, UniProt P18508+P20236); assay: Two-electrode voltage clamp in Xenopus oocytes, α3β3γ2; format: cell-based; conditions: FIG. 1, Xenopus oocytes
T3 construct: expressed in transfected cells; host or cells: Xenopus laevis oocytes injected with cRNA
Procedure: as §1, §2, §3

Male BALB/c mice [2] = assay: Light/dark test in mice; format: in vivo, mouse; conditions: ip, FIG. 2 A, *p<0.05 vs. vehicle
Procedure: as §4, §5
Vehicle and doses of SH-053-S—CH3 8 (10.0-100.0 mg/kg) and SH-053-R-CH3 29 (56.0 mg/kg) were tested in the light/dark and locomotor activity assays. […]

T3 sequence (P20236 29-493): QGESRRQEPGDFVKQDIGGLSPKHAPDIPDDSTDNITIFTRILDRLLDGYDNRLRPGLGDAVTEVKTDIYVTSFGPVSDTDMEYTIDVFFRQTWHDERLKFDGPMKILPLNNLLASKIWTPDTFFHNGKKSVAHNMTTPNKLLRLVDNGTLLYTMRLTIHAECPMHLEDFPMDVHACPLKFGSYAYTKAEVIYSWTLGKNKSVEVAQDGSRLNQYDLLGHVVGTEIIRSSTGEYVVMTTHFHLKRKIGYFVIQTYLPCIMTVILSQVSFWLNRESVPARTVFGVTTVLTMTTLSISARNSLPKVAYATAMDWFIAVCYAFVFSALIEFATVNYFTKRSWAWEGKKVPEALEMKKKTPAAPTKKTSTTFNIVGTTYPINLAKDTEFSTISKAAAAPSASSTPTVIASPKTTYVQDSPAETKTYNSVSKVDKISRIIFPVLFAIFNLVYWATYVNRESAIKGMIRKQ
T3 sequence (P63079 26-473 partner): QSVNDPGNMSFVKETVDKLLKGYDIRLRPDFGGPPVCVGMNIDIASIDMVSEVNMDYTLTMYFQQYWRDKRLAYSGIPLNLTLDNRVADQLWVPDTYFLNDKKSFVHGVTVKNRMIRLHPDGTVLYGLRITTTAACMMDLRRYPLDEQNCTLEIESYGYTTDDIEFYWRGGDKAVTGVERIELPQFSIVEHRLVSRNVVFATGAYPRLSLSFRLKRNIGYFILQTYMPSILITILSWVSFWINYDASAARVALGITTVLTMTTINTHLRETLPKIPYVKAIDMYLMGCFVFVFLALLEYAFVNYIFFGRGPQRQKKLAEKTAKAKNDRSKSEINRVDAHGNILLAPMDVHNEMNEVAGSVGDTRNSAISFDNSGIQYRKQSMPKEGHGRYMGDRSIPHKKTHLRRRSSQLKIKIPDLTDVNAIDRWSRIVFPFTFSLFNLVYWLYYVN
T3 sequence (P18508 39-466): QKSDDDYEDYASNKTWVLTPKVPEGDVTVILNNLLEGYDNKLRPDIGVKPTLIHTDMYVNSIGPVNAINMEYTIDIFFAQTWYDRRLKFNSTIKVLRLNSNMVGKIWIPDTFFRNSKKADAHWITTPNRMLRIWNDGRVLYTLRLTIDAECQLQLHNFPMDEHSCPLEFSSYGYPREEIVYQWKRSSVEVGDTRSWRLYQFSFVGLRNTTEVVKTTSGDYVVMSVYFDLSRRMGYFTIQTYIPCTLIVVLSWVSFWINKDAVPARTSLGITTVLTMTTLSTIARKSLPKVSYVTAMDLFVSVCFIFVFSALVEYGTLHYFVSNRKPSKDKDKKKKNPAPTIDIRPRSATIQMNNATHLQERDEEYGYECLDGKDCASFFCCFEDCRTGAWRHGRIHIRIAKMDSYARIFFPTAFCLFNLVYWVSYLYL
T2 sequence (P62813 28-455): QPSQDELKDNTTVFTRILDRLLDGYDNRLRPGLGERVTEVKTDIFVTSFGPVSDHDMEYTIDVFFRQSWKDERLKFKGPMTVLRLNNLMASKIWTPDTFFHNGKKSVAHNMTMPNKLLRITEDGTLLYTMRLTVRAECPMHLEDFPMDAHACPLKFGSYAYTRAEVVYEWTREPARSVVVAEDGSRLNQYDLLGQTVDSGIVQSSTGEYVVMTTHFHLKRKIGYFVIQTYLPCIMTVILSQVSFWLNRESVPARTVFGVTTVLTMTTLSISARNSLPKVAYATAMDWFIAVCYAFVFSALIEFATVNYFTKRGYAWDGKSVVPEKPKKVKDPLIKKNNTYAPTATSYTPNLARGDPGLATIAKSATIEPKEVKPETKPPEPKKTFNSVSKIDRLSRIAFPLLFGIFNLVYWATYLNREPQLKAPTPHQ
T2 sequence (P63079 26-473 partner): as the sequence (P63079 26-473 partner) above
T2 sequence (P18508 39-466): as the sequence (P18508 39-466) above
T1 sequence (P23576 29-451): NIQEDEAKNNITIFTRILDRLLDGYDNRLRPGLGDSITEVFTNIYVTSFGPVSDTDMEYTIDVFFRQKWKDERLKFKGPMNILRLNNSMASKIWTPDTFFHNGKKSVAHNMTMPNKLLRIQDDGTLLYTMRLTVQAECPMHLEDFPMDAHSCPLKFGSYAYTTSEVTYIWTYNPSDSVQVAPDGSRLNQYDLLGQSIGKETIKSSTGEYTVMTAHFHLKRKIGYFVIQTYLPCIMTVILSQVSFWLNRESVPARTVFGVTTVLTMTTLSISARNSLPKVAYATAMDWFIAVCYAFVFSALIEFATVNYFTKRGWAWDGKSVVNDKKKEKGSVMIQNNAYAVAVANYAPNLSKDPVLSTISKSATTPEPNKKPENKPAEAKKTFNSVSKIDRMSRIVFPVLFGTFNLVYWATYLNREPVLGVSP
T1 sequence (P63079 26-473 partner): as the sequence (P63079 26-473 partner) above
T1 sequence (P18508 39-466): as the sequence (P18508 39-466) above

Compound: C#Cc1ccc2c(c1)C(c1ccccc1)=NC(C)c1c(C(=O)OCC)ncn1-2 (centres unmarked) [SH-053-S—CH3, 8-Ethynyl-4-methyl-6-phenyl-4H-2,5,10b-triaza-benzo[e]azulene-3-carboxylic acid ethyl ester]
- efficacy at α2β3γ2 subtypes (α2β3γ2 GABAA receptors): agonist
- efficacy at α1β3γ2 subtypes (α1β3γ2 GABAA receptors): almost no efficacy
- locomotor activity (Male BALB/c mice [1]; 56 mg/kg): did not suppress locomotor activity
- locomotor activity (Male BALB/c mice [1]; 100 mg/kg): did not suppress locomotor activity in any significant fashion
- locomotor activity (Male BALB/c mice [1]; FIG. 2 B): No effects on locomotor activity were observed
- efficacy at α3β3γ2 subtypes (α3β3γ2 GABAA receptors): agonist
- melting point: 197 to 199 °C
- time spent in the lighted chamber in the light/dark test (Male BALB/c mice [2]): increased time spent in the lighted chamber
